“And” between values parts separate entries of the source, which are not always exact repeats. Equal entries are not always repeated. Records with an inconclusive call do not appear.
Tested on: BDF1 mice, Friend leukemia sc, tumor weight T/C
Assay: NCI In Vivo Anticancer Drug Screen. Data for tumor model Friend Virus Leukemia (Solid) (subcutaneous) in B6D2F1 (BDF1) mice
Conditions: endpoint: mean tumor weight, higher = larger tumour
Procedure: The antitumor activity of compounds was measured in mice bearing transplantable tumors. Survival or tumor size were measured and the results are expressed as the measurement made in the treated group (T) divided by the measurement made in the vehicle treated control group (C). The tumor model used in this assay is Friend Virus Leukemia (Solid) (subcutaneous) in B6D2F1 (BDF1) mice

[1] = dose: 5.0 mg/kg/injection, schedule: Q01DX011 (ip), vehicle: carboxymethylcellulose (CMC)
[2] = dose: 10.0 mg/kg/injection, schedule: Q01DX011 (ip), vehicle: carboxymethylcellulose (CMC)
[3] = dose: 20.0 mg/kg/injection, schedule: Q01DX011 (ip), vehicle: carboxymethylcellulose (CMC)
[4] = dose: 40.0 mg/kg/injection, schedule: Q01DX011 (ip), vehicle: carboxymethylcellulose (CMC)
[5] = dose: 6.0 mg/kg/injection, schedule: Q01DX011 (ip), vehicle: carboxymethylcellulose (CMC)
[6] = dose: 12.0 mg/kg/injection, schedule: Q01DX011 (ip), vehicle: carboxymethylcellulose (CMC)
[7] = dose: 1.5 mg/kg/injection, schedule: Q01DX011 (ip), vehicle: carboxymethylcellulose (CMC)

NC(=O)NO
T/C (dose: 16.0 mg/kg/injection, schedule: Q01DX011 (ip), vehicle: carboxymethylcellulose (CMC)): 91 % of control | T/C (dose: 32.0 mg/kg/injection, schedule: Q01DX011 (ip), vehicle: carboxymethylcellulose (CMC)): 50 % of control | T/C (dose: 32.0 mg/kg/injection, schedule: Q01DX011 (ip), vehicle: saline): 108 % of control | T/C (dose: 64.0 mg/kg/injection, schedule: Q01DX011 (ip), vehicle: carboxymethylcellulose (CMC)): 8 % of control | T/C (dose: 64.0 mg/kg/injection, schedule: Q01DX011 (ip), vehicle: saline): 7 % of control | T/C (dose: 96.0 mg/kg/injection, schedule: Q01DX011 (ip), vehicle: saline): 3 % of control | T/C (dose: 128.0 mg/kg/injection, schedule: Q01DX011 (ip), vehicle: carboxymethylcellulose (CMC)): 4 % of control | T/C (dose: 128.0 mg/kg/injection, schedule: Q01DX011 (ip), vehicle: saline): 4 % of control

Cc1cc(N(CCCl)CCCl)ccc1N=Nc1ccccc1C(=O)O
T/C (dose: 5.0 mg/kg/injection, schedule: Q01DX011 (ip), vehicle: saline): 111 % of control | T/C (dose: 7.5 mg/kg/injection, schedule: Q01DX011 (ip), vehicle: saline): 111 % of control | T/C (dose: 10.0 mg/kg/injection, schedule: Q01DX011 (ip), vehicle: saline): 105 % of control | T/C (dose: 15.0 mg/kg/injection, schedule: Q01DX011 (ip), vehicle: saline): 60 % of control and 73 % of control | T/C (dose: 25.0 mg/kg/injection, schedule: Q01DX011 (ip), vehicle: saline): 21 % of control | T/C (dose: 30.0 mg/kg/injection, schedule: Q01DX011 (ip), vehicle: saline): 20 % of control

C[C@]12C=CC(=O)C=C1CC[C@@H]1[C@@H]2C(=O)C[C@@]2(C)[C@H]1CC[C@]2(O)C(=O)CO
T/C (dose: 10.0 mg/kg/injection, schedule: Q01DX011 (sc), vehicle: steriod suspending solution): 92 % of control | T/C (dose: 20.0 mg/kg/injection, schedule: Q01DX011 (sc), vehicle: steriod suspending solution): 27 % of control | T/C (dose: 25.0 mg/kg/injection, schedule: Q01DX011 (sc), vehicle: steriod suspending solution): 23 % of control | T/C (dose: 50.0 mg/kg/injection, schedule: Q01DX011 (sc), vehicle: steriod suspending solution): 11 % of control | T/C (dose: 100.0 mg/kg/injection, schedule: Q01DX011 (sc), vehicle: steriod suspending solution): 9 % of control | T/C (dose: 200.0 mg/kg/injection, schedule: Q01DX011 (sc), vehicle: steriod suspending solution): 11 % of control

Cc1cc(N(CCCl)CCCl)ccc1C=Nc1ccccc1-c1ccccc1
T/C [1]: 54 % of control | T/C [2]: 70 % of control | T/C [3]: 104 % of control | T/C [4]: 60 % of control | T/C (dose: 80.0 mg/kg/injection, schedule: Q01DX011 (ip), vehicle: carboxymethylcellulose (CMC)): 77 % of control

c1ccc(CSc2ncnc3nc[nH]c23)nc1
T/C (dose: 2.0 mg/kg/injection, schedule: Q01DX011 (ip), vehicle: carboxymethylcellulose (CMC)): 88 % of control | T/C (dose: 4.0 mg/kg/injection, schedule: Q01DX011 (ip), vehicle: carboxymethylcellulose (CMC)): 46 % of control | T/C (dose: 9.0 mg/kg/injection, schedule: Q01DX011 (ip), vehicle: carboxymethylcellulose (CMC)): 33 % of control and 39 % of control | T/C (dose: 18.0 mg/kg/injection, schedule: Q01DX011 (ip), vehicle: carboxymethylcellulose (CMC)): 3 % of control and 7 % of control | T/C (dose: 37.0 mg/kg/injection, schedule: Q01DX011 (ip), vehicle: carboxymethylcellulose (CMC)): 6 % of control and 18 % of control

CC/C(=C(\CC)c1ccc(OC)cc1)c1ccc(O)cc1
T/C (dose: 3.0 mg/kg/injection, schedule: Q01DX011 (sc), vehicle: steriod suspending solution): 69 % of control | T/C (dose: 7.0 mg/kg/injection, schedule: Q01DX011 (sc), vehicle: steriod suspending solution): 101 % of control | T/C (dose: 15.0 mg/kg/injection, schedule: Q01DX011 (sc), vehicle: steriod suspending solution): 79 % of control | T/C (dose: 30.0 mg/kg/injection, schedule: Q01DX011 (sc), vehicle: steriod suspending solution): 55 % of control | T/C (dose: 240.0 mg/kg/injection, schedule: Q01DX011 (sc), vehicle: steriod suspending solution): 65 % of control | T/C (dose: 480.0 mg/kg/injection, schedule: Q01DX011 (sc), vehicle: steriod suspending solution): 63 % of control | T/C (dose: 960.0 mg/kg/injection, schedule: Q01DX011 (sc), vehicle: steriod suspending solution): 62 % of control | T/C (dose: 1920.0 mg/kg/injection, schedule: Q01DX011 (sc), vehicle: steriod suspending solution): 63 % of control

CC(C)=CC1C(C(=O)OCc2ccc(C)cc2C)C1(C)C (configuration not stated)
T/C (dose: 87.5 mg/kg/injection, schedule: Q01DX011 (ip), vehicle: carboxymethylcellulose (CMC)): 107 % of control | T/C (dose: 175.0 mg/kg/injection, schedule: Q01DX011 (ip), vehicle: carboxymethylcellulose (CMC)): 83 % of control | T/C (dose: 350.0 mg/kg/injection, schedule: Q01DX011 (ip), vehicle: carboxymethylcellulose (CMC)): 53 % of control | T/C (dose: 500.0 mg/kg/injection, schedule: Q01DX011 (ip), vehicle: carboxymethylcellulose (CMC)): 46 % of control

O=C(c1ccc(C(=O)N2CC2)cc1)N1CC1
T/C (dose: 3.0 mg/kg/injection, schedule: Q01DX011 (ip), vehicle: carboxymethylcellulose (CMC)): 79 % of control | T/C [5]: 90 % of control | T/C [6]: 74 % of control | T/C (dose: 24.0 mg/kg/injection, schedule: Q01DX011 (ip), vehicle: carboxymethylcellulose (CMC)): 76 % of control

CN(C)N=Nc1n[nH]nc1C(N)=O
T/C (dose: 250.0 mg/kg/injection, schedule: Q01DX011 (ip), vehicle: saline): 75 % of control | T/C (dose: 375.0 mg/kg/injection, schedule: Q01DX011 (ip), vehicle: saline): 40 % of control

CC1CC(C)OS(=O)O1 (configuration not stated)
T/C (dose: 44.0 mg/kg/injection, schedule: Q01DX011 (ip), vehicle: saline): 70 % of control | T/C (dose: 100.0 mg/kg/injection, schedule: Q01DX011 (ip), vehicle: saline): 71 % of control | T/C (dose: 150.0 mg/kg/injection, schedule: Q01DX011 (ip), vehicle: saline): 85 % of control

Nc1ncnc2[nH]ncc12
T/C (dose: 0.9 mg/kg/injection, schedule: Q01DX011 (ip), vehicle: carboxymethylcellulose (CMC)): 108 % of control | T/C (dose: 0.93 mg/kg/injection, schedule: Q01DX011 (ip), vehicle: carboxymethylcellulose (CMC)): 74 % of control | T/C (dose: 1.8 mg/kg/injection, schedule: Q01DX011 (ip), vehicle: carboxymethylcellulose (CMC)): 157 % of control | T/C (dose: 1.87 mg/kg/injection, schedule: Q01DX011 (ip), vehicle: carboxymethylcellulose (CMC)): 90 % of control | T/C (dose: 1.9 mg/kg/injection, schedule: Q01DX011 (ip), vehicle: carboxymethylcellulose (CMC)): 124 % of control | T/C (dose: 3.7 mg/kg/injection, schedule: Q01DX011 (ip), vehicle: carboxymethylcellulose (CMC)): 57 % of control | T/C (dose: 3.75 mg/kg/injection, schedule: Q01DX011 (ip), vehicle: carboxymethylcellulose (CMC)): 50 % of control | T/C (dose: 3.8 mg/kg/injection, schedule: Q01DX011 (ip), vehicle: carboxymethylcellulose (CMC)): 88 % of control | T/C [1]: 29 % of control | T/C [5]: 40 % of control | T/C (dose: 7.0 mg/kg/injection, schedule: Q01DX011 (ip), vehicle: carboxymethylcellulose (CMC)): 28 % of control

CC1NC(=O)NC1CCCCCC(=O)O (configuration not stated)
T/C (dose: 89.0 mg/kg/injection, schedule: Q01DX011 (ip), vehicle: carboxymethylcellulose (CMC)): 169 % of control | T/C (dose: 178.0 mg/kg/injection, schedule: Q01DX011 (ip), vehicle: carboxymethylcellulose (CMC)): 119 % of control

S=c1nc[nH]c2c1ncn2C1CCCO1 (configuration not stated)
T/C (dose: 0.75 mg/kg/injection, schedule: Q01DX011 (ip), vehicle: carboxymethylcellulose (CMC)): 79 % of control | T/C [7]: 65 % of control | T/C [5]: 54 % of control and 35 % of control | T/C [6]: 27 % of control and 45 % of control | T/C (dose: 25.0 mg/kg/injection, schedule: Q01DX011 (ip), vehicle: carboxymethylcellulose (CMC)): 9 % of control and 10 % of control | T/C (dose: 50.0 mg/kg/injection, schedule: Q01DX011 (ip), vehicle: carboxymethylcellulose (CMC)): 2 % of control and 20 % of control | T/C (dose: 100.0 mg/kg/injection, schedule: Q01DX011 (ip), vehicle: carboxymethylcellulose (CMC)): 1 % of control and 3 % of control

CN(C)c1ccc2nc3ccc(=[N+](C)C)cc-3sc2c1
T/C [1]: 278 % of control | T/C [2]: 175 % of control | T/C [3]: 171 % of control | T/C [4]: 235 % of control

CN(Cc1cnc2nc(N)nc(N)c2n1)c1ccc(C(=O)N[C@@H](CCC(=O)O)C(=O)O)cc1
T/C (dose: 0.37 mg/kg/injection, schedule: Q01DX011 (ip), vehicle: saline): 68 % of control | T/C (dose: 0.5 mg/kg/injection, schedule: Q01DX011 (ip), vehicle: carboxymethylcellulose (CMC)): 44 % of control | T/C (dose: 0.75 mg/kg/injection, schedule: Q01DX011 (ip), vehicle: saline): 91 % of control | T/C (dose: 0.8 mg/kg/injection, schedule: Q01DX011 (ip), vehicle: carboxymethylcellulose (CMC)): 71 % of control and 88 % of control | T/C (dose: 1.4 mg/kg/injection, schedule: Q01DX011 (ip), vehicle: carboxymethylcellulose (CMC)): 36 % of control | T/C [7]: 16 % of control | T/C (dose: 1.5 mg/kg/injection, schedule: Q01DX011 (ip), vehicle: saline): 49 % of control

Source: PubChem BioAssay AID228 (DTP/NCI, 2004)
